Source: patent US20260294770A1, “FORMULATIONS OF NARINGENIN” (DEBUT BIOTECHNOLOGY, INC., priority 2023, published 2026)

Key:
[1] = system: HSPA1A; assay: Downregulation of gene expression and/or activity, 1% naringenin: HSPA1A
Excerpt: (§1) In certain embodiments, administration of a composition comprising naringenin leads to up-regulation of LCE5A, KRT77, ALOXE3, KRT1, HPGD, MUCL1, CASP14, WFDC12, KRT10, DNASE1L2, IL37, SERPINB12, HAL, UPK1A, CALML5, LCE2B, and/or MIR205. In certain embodiments, administration of a composition comprising naringenin leads to down-regulation of CCL11, CSF2, IL23A, IL11, BMP6, IL13RA2, C2CD4A, NR4A2, C2CD4B, FGF2, FARP4, GDF15, THBS1, HSPA1A, PTGS2, and/or DKK1. Tables 10 and 11 provide data for upregulation and downregulation respectively of certain genes after administration of compositions comprising 1% naringenin.
Heat shock protein family A (Hsp70) member 1A (HSPA1A) plays a role in clearing of aged cells and/or senolytic effect. In certain embodiments, the administration of compositions comprising naringenin leads to downregulation of expression and/or activity of HSPA1A. […] In certain embodiments, this may also lead to anti-aging effect for the skin. In certain embodiments, the administration of composition comprising naringenin results in at least about 2 to about 10-fold downregulation of expression and/or activity of HSPA1A. In certain embodiments, the administration of composition comprising naringenin results in at least about five (5) fold downregulation of expression and/or activity of HSPA1A.

[2] = system: IL37; assay: Upregulation of gene expression and/or activity, 1% naringenin: IL37
Excerpt: as §1

[3] = system: IL13RA2; assay: Downregulation of gene expression and/or activity, 1% naringenin: IL13RA2
Excerpt: as §1
Interleukin 13 receptor subunit alpha 2 (IL13RA2) plays a role in recovery after stressor caused inflammatory response. In certain embodiments, downregulation of IL13RA2 leads to improved recovery after inflammation caused by stressors. In certain embodiments, the administration of composition comprising naringenin results in at least about 5 to about 15-fold downregulation of expression and/or activity of IL13RA2. In certain embodiments, the administration of composition comprising naringenin results in at least about ten (10) fold downregulation of expression and/or activity of IL13RA2.

[4] = system: IL11; assay: Downregulation of gene expression and/or activity, 1% naringenin: IL11
Excerpt: as §1
Interleukin 11 (IL11) plays a role in the inflammatory pathway and in certain pathways that may be involved in cancer. In certain embodiments of the invention, downregulation of IL11 leads to an anti-inflammatory activity and/or anticancer activity. In certain embodiments, the administration of composition comprising naringenin results in at least about 10 to about 20-fold downregulation of expression and/or activity of IL11. In certain embodiments, the administration of composition comprising naringenin results in at least about ten (10) fold downregulation of expression and/or activity of IL11.

[5] = system: IL-6; assay: IL-6 concentration in stimulated (stressed) normal human epidermal keratinocytes (ELISA); type: cell-based; conditions: for IL-6 concentration: LPS + Poly:IC stressed NHEK, stimulated control 1124.6
Excerpt: Normal Human Epidermal Keratinocytes (NHEK) were stressed with a cocktail of lipopolysaccharide (LPS) and Polyinosinic-polycytidylic acid sodium salt (Poly:IC), external aggressors capable of inducing an inflammatory response. Stressed cells were subsequently treated with test articles and reduction in inflammatory markers was measuring by ELISA. Tables 19 and 20, provided below, discloses data for TNFα and IL-6 concentrations, respectively, in stressed normal human epidermal keratinocytes.

[6] = system: mouse models; conditions: intraperitoneal; cited from earlier work
[7] = target: T1, human neutrophil elastase (Homo sapiens, UniProt P08246); assay: Elastase enzyme inhibition; type: biochemical
T1 sequence (P08246 30-267): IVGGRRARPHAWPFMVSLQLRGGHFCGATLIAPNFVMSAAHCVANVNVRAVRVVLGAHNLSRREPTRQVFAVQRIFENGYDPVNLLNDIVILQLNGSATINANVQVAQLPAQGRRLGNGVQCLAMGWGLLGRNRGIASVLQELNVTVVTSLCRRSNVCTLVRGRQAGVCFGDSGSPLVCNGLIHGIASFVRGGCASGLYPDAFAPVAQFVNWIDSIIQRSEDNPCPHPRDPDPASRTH
Procedure: The assay was conducted to evaluate the elastase enzyme inhibition activity of compositions comprising naringenin.
Neutrophil infiltration and neutrophil elastase are both increased in the skin in response to UV stress. […] Therefore, inhibition of this enzyme, particularly in combination with antioxidant activity, is effective in delaying wrinkle development and aiding in maintaining skin integrity. This assay is measures release of 4-nitroaniline from an Me-Suc-Ala-Ala-Pro-Val-pNA by human neutrophil elastase and can be quantified at 405 nm by comparing to solvent control.

[8] = system: HPGD; assay: Upregulation of gene expression and/or activity, 1% naringenin: HPGD
Excerpt: as §1
Hydroxyprostaglandin dehydrogenase (HPGD) has an anti-inflammatory function. In particular, it is involved in degradation of molecules that lead to inflammatory signaling. For example, HPGD is involved in degradation of prostaglandin, which is involved in inflammatory signaling pathway. In certain embodiments, upregulation of expression and/or activity of HPGD leads to an anti-inflammatory effect. In certain embodiments, upregulation of HPGD leads to increase in degradation of signaling molecules that are involved in inflammation. Thus, the upregulation of HPGD leads to reduced inflammation. In certain embodiments, the administration of composition comprising naringenin results in at least about 5 to about 20-fold upregulation of expression and/or activity of HPGD. […]

[9] = system: LCE2B; assay: Upregulation of gene expression and/or activity, 1% naringenin: LCE2B
Excerpt: as §1
Late cornified envelope 2B (LCE2B) plays a role in the formation of precursors of the cornified envelope of the stratum corneum. It also leads to improved formation of outer skin protective barrier. In certain embodiments, the administration of composition comprising naringenin results in upregulation of LCE2B, which has a role in enhancing the outer skin protective barrier. In certain embodiments, the administration of composition comprising naringenin results in at least about 5 to about 20-fold upregulation of expression and/or activity of LCE2B. In certain embodiments, the administration of composition comprising naringenin results in at least about five (5) fold upregulation of expression and/or activity of LCE2B.

With `O=C1C[C@@H](c2ccc(O)cc2)Oc2cc(O)cc(O)c21` [naringenin, (2S)-5,7-Dihydroxy-2-(4-hydroxyphenyl)-2,3-dihydro-4H-1-benzopyran-4-one] the “fold downregulation in expression and/or activity of HSPA1A” value [1] was roughly 6 fold, the “Fold-increase (downregulation table) HSPA1A” value ([1]; negative = downregulation) was −6 fold and the “Fold-increase in expression and/or activity of IL37” value [2] was 11 fold. For the same compound, the “fold downregulation in expression and/or activity of IL13RA2” value [3] was roughly 10 fold, the “Fold-increase (downregulation table) IL13RA2” value ([3]; negative = downregulation) was −10 fold and the “fold downregulation in expression and/or activity of IL11” value [4] was roughly 14 fold. The IL-6 concentration ([5]; 0.0001% naringenin, p-value 0.0001) was 395.8 pg/mL, the IL-6 concentration ([5]; 0.0045% naringenin, p-value 0.0029) was 42.0 pg/mL and the IL-6 concentration ([5]; 0.007% naringenin, p-value 0.0030) was 50.0 pg/mL. It also gave an IL-6 concentration ([5]; 0.01% naringenin, p-value 0.0035) of 76.6 pg/mL, an inhibition at 0.0001 % ([5]; Homo sapiens, NHEK, 0.0001% naringenin, vs stimulated control, p-value 0.0001, read-out: IL-6 % Reduction vs Treated) of 64.8% and an inhibition at 0.0045 % ([5]; Homo sapiens, NHEK, 0.0045% naringenin, vs stimulated control, p-value 0.0029, read-out: IL-6 % Reduction vs Treated) of 96.3%. For the same compound, the inhibition at 0.007 % ([5]; Homo sapiens, NHEK, 0.007% naringenin, vs stimulated control, p-value 0.0030, read-out: IL-6 % Reduction vs Treated) was 95.6%, the inhibition at 0.01 % ([5]; Homo sapiens, NHEK, 0.01% naringenin, vs stimulated control, p-value 0.0035, read-out: IL-6 % Reduction vs Treated) was 93.2% and the “Reduction of IL-6 (in words)” value ([5]; stressed keratinocytes) was “to non-stressed levels”. For the same compound, the Cytokine production [6] was “lowers cytokine production”, the Edema [6] was “effectively inhibits edema” and the “Symptoms associated with atopic dermatitis” value [6] was “lowers symptoms associated with atopic dermatitis”. The UVB-induced skin damage [6] was “inhibits UVB-induced skin damage”, the “Lowest concentration inhibiting elastase” value [7] was no more than 0.02 % w/w and the inhibition at 0.02 % strength ([7]; 0.02 % w/w naringenin) was 1.05%. For the same compound, the inhibition at 0.1 % strength ([7]; 0.10 % w/w naringenin) was 15.5%, the inhibition at 0.5 % strength ([7]; 0.50 % w/w naringenin) was 84% and the IC50 elastase inhibition ([7]; role: inhibitor, substrate Me-Suc-Ala-Ala-Pro-Val-pNA, calculated) was 0.159 % w/w. The “Fold-increase in expression and/or activity of HPGD” value [8] was roughly 10 fold and the “Fold-increase in expression and/or activity of LCE2B” value [9] was roughly 9 fold.
